Experimental data published in PubChem BioAssay AID1259408 (Genetic Toxicology Data Bank (GENE-TOX), 2018).
Active and inactive are the calls of the source. No rule for the calls is given here.

System: GENE-TOX genotoxicity assays, various organisms and cells
Experiment: GENE-TOX mutagenicity studies
Conditions: for call: Assay Type: In vivo carcinogenicity studies
[1] = Species/Cell Type: Neurospora crassa, Assay Type: Forward gene mutation, Assay Code: NEF+, Evaluation Type: Evaluation A (Pre-1980)
[2] = Species/Cell Type: Nonhuman, Assay Code: CCG+L, Evaluation Type: Evaluation A (Pre-1980)
[3] = Species/Cell Type: Schizosaccharomyces pombe, Assay Type: Reverse gene mutation, Assay Code: YEZ+, Evaluation Type: Evaluation A (Pre-1980)
[4] = Species/Cell Type: Saccharomyces cerevisiae, Assay Type: Mitotic recombination or gene conversion, Assay Code: YEC+, Evaluation Type: Evaluation A (Pre-1980)
[5] = Species/Cell Type: Salmonella typhimurium (one or more of the five standard strains: TA98, TA100, TA1535, TA1537, and TA1538), Assay Type: Histidine reverse gene mutation, Ames assay, Assay Code: SALT, Evaluation Type: Evaluation A (Pre-1980)
[6] = Species/Cell Type: Human lymphocytes, Assay Type: Sister-chromatid exchange (SCE) in vitro, Assay Code: SCLT, Evaluation Type: Evaluation B (Post-1980)
[7] = Species/Cell Type: Salmonella typhimurium (one or more of the five standard strains: TA98, TA100, TA1535, TA1537, and TA1538), Assay Type: Histidine reverse gene mutation, Ames assay, Assay Code: SAL+*, Activation: With metabolic activation, Evaluation Type: Evaluation A (Pre-1980)
[8] = Species/Cell Type: Mouse, Sex: Male, Assay Type: Sperm morphology, Assay Code: SPI-, Evaluation Type: Evaluation A (Pre-1980)
[9] = Species/Cell Type: Neurospora crassa, Assay Type: Reverse gene mutation, Assay Code: NER+, Evaluation Type: Evaluation A (Pre-1980)
[10] = Species/Cell Type: Bacillus subtilis (H17 vs M45), Assay Type: Rec-assay, spot test, DNA effects (bacterial DNA repair), Assay Code: REWT, Evaluation Type: Evaluation A (Pre-1980)
[11] = Species/Cell Type: Saccharomyces cerevisiae, Assay Type: Mitotic recombination or gene conversion, Assay Code: YEC-, Evaluation Type: Evaluation A (Pre-1980)
[12] = Species/Cell Type: Salmonella typhimurium (one or more of the five standard strains: TA98, TA100, TA1535, TA1537, and TA1538), Assay Type: Histidine reverse gene mutation, Ames assay, Assay Code: SAL+, Evaluation Type: Evaluation A (Pre-1980)

C(CC1CO1)C1CO1 (stereo not given)
mutagenic call [1]: active; positive | call [2]: active; positive | mutagenic call [3]: active; positive

CC(=O)O[C@]1(C(C)=O)CC[C@H]2[C@@H]3C=C(Cl)C4=CC(=O)[C@@H]5C[C@@H]5[C@]4(C)[C@H]3CC[C@@]21C
mutagenic call (Species/Cell Type: Human, Sex: Male, Assay Type: Sperm morphology, Assay Code: SPH+, Evaluation Type: Evaluation A (Pre-1980)): active; positive

S=C([S-])NCCNC(=S)[S-].[Zn+2]
mutagenic call (Species/Cell Type: Human diploid fibroblasts, Assay Type: Unscheduled DNA synthesis (UDS) in vitro, DNA effects, Assay Code: UDH-, Evaluation Type: Evaluation A (Pre-1980)): inactive; negative | mutagenic call [4]: active; positive | mutagenic call (Species/Cell Type: Saccharomyces cerevisiae, Assay Type: Mitotic recombination or gene conversion, Assay Code: YEH-, Evaluation Type: Evaluation A (Pre-1980)): inactive; negative

Oc1c(Cl)cc(Cl)c2cccnc12
mutagenic call [5]: no conclusion

C=CCc1ccc(O)c(OC)c1
mutagenic call [6]: no conclusion | mutagenic call (Species/Cell Type: Mammalian polychromatic erythrocytes, Assay Type: Micronucleus test, chromosome aberrations, Assay Code: MNT+, Evaluation Type: Evaluation B (Post-1980)): active; positive | mutagenic call (Species/Cell Type: Salmonella typhimurium, Assay Type: Forward and reverse gene mutation, host-mediated assay, Assay Code: HMAT, Evaluation Type: Evaluation A (Pre-1980)): no conclusion

Cc1ccc2ccccc2n1
mutagenic call [7]: active; positive

COC(F)(F)C(Cl)Cl
mutagenic call [8]: inactive; negative | mutagenic call (Species/Cell Type: Nonhuman, Assay Type: Sister-chromatid exchange (SCE) in vitro, Assay Code: SC2T, Evaluation Type: Evaluation B (Post-1980)): no conclusion | mutagenic call [5]: no conclusion

N#CO
mutagenic call (Species/Cell Type: Arabidopsis species, Assay Type: Gene mutation, Assay Code: ARM+, Evaluation Type: Evaluation A (Pre-1980)): active; positive

NC(=O)c1ccc(/C=C/c2ccc([N+](=O)[O-])o2)cc1
mutagenic call (Species/Cell Type: Drosophila melanogaster, Assay Type: Sex-linked recessive lethal gene mutation, Assay Code: SRL+, Evaluation Type: Evaluation A (Pre-1980)): active; positive | mutagenic call [1]: active; positive | mutagenic call [9]: active; positive | mutagenic call (Species/Cell Type: Saccharomyces cerevisiae, Assay Type: Mitotic recombination or gene conversion, Assay Code: YEH+, Evaluation Type: Evaluation A (Pre-1980)): active; positive | mutagenic call (Species/Cell Type: Saccharomyces cerevisiae, Assay Type: Reverse gene mutation, Assay Code: YER+, Evaluation Type: Evaluation A (Pre-1980)): active; positive

Cc1cccc(O)c1
mutagenic call (Species/Cell Type: Allium cepa, Assay Type: Chromosome aberrations, Assay Code: ALCT, Evaluation Type: Evaluation A (Pre-1980)): no conclusion | mutagenic call [6]: no conclusion | mutagenic call (Species/Cell Type: Human, Assay Type: Sister-chromatid exchange (SCE) in vitro, Assay Code: SC1+, Evaluation Type: Evaluation B (Post-1980)): active; positive | mutagenic call (Species/Cell Type: Nonhuman, Assay Type: Sister-chromatid exchange (SCE) in vivo, Assay Code: SC3T, Evaluation Type: Evaluation B (Post-1980)): no conclusion

CCn1c(=O)n(C)c2c(=O)n(C)c(=O)n(C)c21
mutagenic call (Species/Cell Type: Allium cepa, Assay Type: Chromosome aberrations, Assay Code: ALC+D, Dose Response: With dose response, Evaluation Type: Evaluation A (Pre-1980)): active; positive

CCCCOc1ccc(CC(=O)NOC=O)cc1
mutagenic call (Species/Cell Type: Nonhuman, Assay Type: Sister-chromatid exchange (SCE) in vitro, Assay Code: SC2+D, Dose Response: With dose response, Evaluation Type: Evaluation B (Post-1980)): active; positive

CNC(=O)Oc1ccccc1Cl
mutagenic call [10]: no conclusion | mutagenic call (Species/Cell Type: Bacillus subtilis (H17 vs M45T), Assay Type: Rec-assay, spot test, DNA effects (bacterial DNA repair), Assay Code: REX-, Evaluation Type: Evaluation A (Pre-1980)): inactive; negative | mutagenic call (Species/Cell Type: Escherichia coli WP2, Assay Type: Tryptophan reverse gene mutation, Assay Code: WP2-, Evaluation Type: Evaluation A (Pre-1980)): inactive; negative

CN(C)C(=O)Nc1cccc(C(F)(F)F)c1
mutagenic call [11]: inactive; negative

Cc1ccc2nc3sc(=O)sc3nc2c1
mutagenic call [11]: inactive; negative

COc1cc(C(=O)CCN2CCCCC2)ccc1O
mutagenic call (Species/Cell Type: Salmonella typhimurium, Assay Type: Forward and reverse gene mutation, host-mediated assay, Assay Code: HMA-, Evaluation Type: Evaluation A (Pre-1980)): inactive; negative

CCCN1CCN(c2ccc([N+](=O)[O-])c3no[n+]([O-])c23)CC1
mutagenic call [12]: active; positive

CC(C)(C)OOCO
mutagenic call [9]: active; positive

C[C@H]1CCCCN1N=O
call (Species/Cell Type: Nonhuman, Assay Code: CCG+, Evaluation Type: Evaluation A (Pre-1980)): active; positive

ClC1CO1 (stereo not given)
mutagenic call (Species/Cell Type: Chinese hamster lung (V79) cells, Assay Type: Forward gene mutation at the HPRT or ouabain locus, Assay Code: V79+, Evaluation Type: Evaluation A (Pre-1980)): active; positive | call [2]: active; positive | mutagenic call [4]: active; positive | mutagenic call [12]: active; positive | mutagenic call [3]: active; positive

Cc1c2ccccc2c(C)c2ccccc12
mutagenic call (Species/Cell Type: Mammalian polychromatic erythrocytes, Assay Type: Micronucleus test, chromosome aberrations, Assay Code: MNTT, Evaluation Type: Evaluation A (Pre-1980)): no conclusion | mutagenic call [8]: inactive; negative | mutagenic call (Species/Cell Type: Nonhuman, Assay Type: Sister-chromatid exchange (SCE) in vitro, Assay Code: SC2+, Evaluation Type: Evaluation B (Post-1980)): active; positive | mutagenic call [7]: active; positive

NC(=O)c1ncn([C@@H]2O[C@H](CO)[C@@H](O)[C@H]2O)c1O
mutagenic call (Species/Cell Type: Nonhuman, Assay Type: Sister-chromatid exchange (SCE) in vitro, Assay Code: SC2+D, Dose Response: With dose response, Evaluation Type: Evaluation A (Pre-1980)): active; positive

O=[N+]([O-])c1cc([N+](=O)[O-])c2ccc(S(=O)(=O)O)cc2c1O
mutagenic call [10]: no conclusion | mutagenic call (Species/Cell Type: Bacillus subtilis (H17 vs M45T), Assay Type: Rec-assay, spot test, DNA effects (bacterial DNA repair), Assay Code: REXT, Evaluation Type: Evaluation A (Pre-1980)): no conclusion | mutagenic call [12]: active; positive | mutagenic call [5]: no conclusion
